Test results published in ChEMBL document CHEMBL3044647, “Tests for Evaluating the Side Effects of Chlorothalonil (TPN) and Spinosad on the Parasitic Wasp (Aphidius colemani)” (J Pestic Sci, 2005).

Experiments:
Aphidius colemani = test: Drug uptake in Aphidius colemani at 100 mg/l treated as spraying; assay type: ADME, organism-based; details: in vivo, topical_or_ocular
[1] = Toxicity against Aphidius colemani in strawberry leaf assessed as mortality at 5 mg/l treated as spraying after 48 hr relative to control; assay type: organism-based; details: in vivo
[2] = Toxicity against Aphidius colemani in cucumber leaf assessed as mortality at 5 mg/l treated as spraying after 24 hr relative to control; assay type: organism-based; details: in vivo, other: spraying
[3] = Residual toxicity against Aphidius colemani in strawberry leaf assessed as mortality at 50 mg/l leaves collected after 10 days of application measured after 48 hr relative to control; assay type: organism-based; details: in vivo
[4] = Residual toxicity against Aphidius colemani in strawberry leaf assessed as mortality at 50 mg/l leaves collected after 20 days of application measured after 48 hr relative to control; assay type: organism-based; details: in vivo
[5] = Contact toxicity against Aphidius colemani assessed as mortality at 100 mg/l after 24 hr relative to control; assay type: organism-based; details: in vivo, other: contact
[6] = Toxicity against Aphidius colemani in cucumber leaf assessed as mortality at 10 mg/l treated as spraying after 24 hr relative to control; assay type: organism-based; details: in vivo, other: spraying
Leaf [7] = test: Drug level in Cucumis sativus (cucumber) leaf assessed as deposition in leaf at 100 mg/l; assay type: ADME
Leaf [8] = test: Drug level in Fragaria x ananassa (strawberry) leaf assessed as deposition in leaf at 5 mg/l; assay type: ADME
[9] = Toxicity against Aphidius colemani in kidney bean leaf assessed as mortality at 0.8 mg/l treated as spraying after 48 hr relative to control; assay type: organism-based; details: in vivo, other: spraying
[10] = Drug level in Fragaria x ananassa (strawberry) leaf at 50 mg/l leaves after 30 days; assay type: ADME; details: read-out: Drug uptake
Leaf [11] = test: Drug level in Cucumis sativus (cucumber) leaf assessed as deposition in leaf at 5 mg/l; assay type: ADME
[12] = Residual toxicity against Aphidius colemani in strawberry leaf assessed as mortality at 50 mg/l leaves collected after 40 days of application measured after 24 hr relative to control; assay type: organism-based; details: in vivo
[13] = Toxicity against Aphidius colemani in kidney bean leaf assessed as mortality at 1 mg/l treated as spraying after 24 hr relative to control; assay type: organism-based; details: in vivo
[14] = Toxicity against Aphidius colemani in kidney bean leaf assessed as mortality at 83.3 mg/l treated as spraying after 48 hr relative to control; assay type: organism-based; details: in vivo, other: spraying
[15] = Residual toxicity against Aphidius colemani in strawberry leaf assessed as mortality at 50 mg/l leaves collected after 5 days of application measured after 24 hr relative to control; assay type: organism-based; details: in vivo
[16] = Toxicity against Aphidius colemani in kidney bean leaf assessed as mortality at 1 mg/l treated as spraying after 48 hr relative to control; assay type: organism-based; details: in vivo
Leaf [17] = test: Drug level in Phaseolus vulgaris (kidney bean) leaf assessed as deposition in leaf at 8.3 mg/l; assay type: ADME
Leaf [18] = test: Drug level in Cucumis sativus (cucumber) leaf assessed as deposition in leaf at 10 mg/l; assay type: ADME
[19] = Toxicity against Aphidius colemani in strawberry leaf assessed as mortality at 100 mg/l treated as spraying after 48 hr relative to control; assay type: organism-based; details: in vivo
Leaf [20] = test: Drug level in Phaseolus vulgaris (kidney bean) leaf assessed as deposition in leaf at 100 mg/l; assay type: ADME
[21] = Toxicity against Aphidius colemani in kidney bean leaf assessed as mortality at 8.3 mg/l treated as spraying after 48 hr relative to control; assay type: organism-based; details: in vivo
[22] = Contact toxicity against Aphidius colemani assessed as mortality at 100 mg/l after 24 hr; assay type: organism-based; details: in vivo, other: contact
Leaf [23] = test: Drug level in Phaseolus vulgaris (kidney bean) leaf assessed as deposition in leaf at 1 mg/l; assay type: ADME
[24] = Drug level in Fragaria x ananassa (strawberry) leaf at 50 mg/l leaves after 40 days; assay type: ADME; details: read-out: Drug uptake
Leaf [25] = test: Drug level in Phaseolus vulgaris (kidney bean) leaf assessed as deposition in leaf at 5 mg/l; assay type: ADME
[26] = Toxicity against Aphidius colemani assessed as mortality at 100 mg/l, po after 24 hr relative to control; assay type: organism-based; details: in vivo
[27] = Residual toxicity against Aphidius colemani in strawberry leaf assessed as mortality at 50 mg/l leaves collected after 5 days of application measured after 48 hr relative to control; assay type: organism-based; details: in vivo
Leaf [28] = test: Drug level in Phaseolus vulgaris (kidney bean) leaf assessed as deposition in leaf at 0.8 mg/l; assay type: ADME
[29] = Toxicity against Aphidius colemani in strawberry leaf assessed as mortality at 100 mg/l treated as spraying after 24 hr relative to control; assay type: organism-based; details: in vivo
Leaf [30] = test: Drug level in Fragaria x ananassa (strawberry) leaf assessed as deposition in leaf at 1 mg/l; assay type: ADME
[31] = Toxicity against Aphidius colemani assessed as mortality at 100 mg/l, po after 24 hr; assay type: organism-based; details: in vivo
[32] = Toxicity against Aphidius colemani in cucumber leaf assessed as mortality at 100 mg/l treated as spraying after 24 hr relative to control; assay type: organism-based; details: in vivo, other: spraying
[33] = Toxicity against Aphidius colemani in strawberry leaf assessed as mortality at 1 mg/l treated as spraying after 24 hr relative to control; assay type: organism-based; details: in vivo, other: spraying
[34] = Toxicity against Aphidius colemani in cucumber leaf assessed as mortality at 100 mg/l treated as spraying after 48 hr relative to control; assay type: organism-based; details: in vivo
Leaf [35] = test: Drug level in Fragaria x ananassa (strawberry) leaf assessed as deposition in leaf at 100 mg/l; assay type: ADME
[36] = Toxicity against Aphidius colemani in cucumber leaf assessed as mortality at 10 mg/l treated as spraying after 48 hr relative to control; assay type: organism-based; details: in vivo, other: spraying
[37] = Toxicity against Aphidius colemani in kidney bean leaf assessed as mortality at 5 mg/l treated as spraying after 48 hr relative to control; assay type: organism-based; details: in vivo
[38] = Residual toxicity against Aphidius colemani in strawberry leaf assessed as mortality at 50 mg/l leaves collected after 30 days of application measured after 48 hr relative to control; assay type: organism-based; details: in vivo
[39] = Toxicity against Aphidius colemani in kidney bean leaf assessed as mortality at 100 mg/l treated as spraying after 48 hr relative to control; assay type: organism-based; details: in vivo, other: spraying
[40] = Residual toxicity against Aphidius colemani in strawberry leaf assessed as mortality at 50 mg/l leaves collected after 10 days of application measured after 24 hr relative to control; assay type: organism-based; details: in vivo
[41] = Toxicity against Aphidius colemani in strawberry leaf assessed as mortality at 1 mg/l treated as spraying after 48 hr relative to control; assay type: organism-based; details: in vivo, other: spraying
[42] = Residual toxicity against Aphidius colemani in strawberry leaf assessed as mortality at 50 mg/l leaves collected after 20 days of application measured after 24 hr relative to control; assay type: organism-based; details: in vivo
[43] = Toxicity against Aphidius colemani in cucumber leaf assessed as mortality at 5 mg/l treated as spraying after 48 hr relative to control; assay type: organism-based; details: in vivo
Leaf [44] = test: Drug level in Phaseolus vulgaris (kidney bean) leaf assessed as deposition in leaf at 83.3 mg/l; assay type: ADME
[45] = Toxicity against Aphidius colemani in kidney bean leaf assessed as mortality at 0.8 mg/l treated as spraying after 24 hr relative to control; assay type: organism-based; details: in vivo
[46] = Drug level in Fragaria x ananassa (strawberry) leaf at 50 mg/l leaves after 5 days; assay type: ADME; details: read-out: Drug uptake
[47] = Toxicity against Aphidius colemani in strawberry leaf assessed as mortality at 5 mg/l treated as spraying after 24 hr relative to control; assay type: organism-based; details: in vivo, other: spraying
[48] = Toxicity against Aphidius colemani in kidney bean leaf assessed as mortality at 100 mg/l treated as spraying after 24 hr relative to control; assay type: organism-based; details: in vivo
[49] = Residual toxicity against Aphidius colemani in strawberry leaf assessed as mortality at 50 mg/l leaves collected after 40 days of application measured after 48 hr relative to control; assay type: organism-based; details: in vivo
[50] = Toxicity against Aphidius colemani in cucumber leaf assessed as mortality at 20 mg/l treated as spraying after 48 hr relative to control; assay type: organism-based; details: in vivo
Leaf [51] = test: Drug level in Cucumis sativus (cucumber) leaf assessed as deposition in leaf at 20 mg/l; assay type: ADME
[52] = Drug level in Fragaria x ananassa (strawberry) leaf at 50 mg/l leaves after 10 days; assay type: ADME; details: read-out: Drug uptake
[53] = Toxicity against Aphidius colemani in kidney bean leaf assessed as mortality at 8.3 mg/l treated as spraying after 24 hr relative to control; assay type: organism-based; details: in vivo
[54] = Toxicity against Aphidius colemani in kidney bean leaf assessed as mortality at 83.3 mg/l treated as spraying after 24 hr relative to control; assay type: organism-based; details: in vivo, other: spraying
[55] = Toxicity against Aphidius colemani in cucumber leaf assessed as mortality at 20 mg/l treated as spraying after 24 hr relative to control; assay type: organism-based; details: in vivo, other: spraying
[56] = Toxicity against Aphidius colemani in kidney bean leaf assessed as mortality at 5 mg/l treated as spraying after 24 hr relative to control; assay type: organism-based; details: in vivo
[57] = Residual toxicity against Aphidius colemani in strawberry leaf assessed as mortality at 50 mg/l leaves collected after 30 days of application measured after 24 hr relative to control; assay type: organism-based; details: in vivo
[58] = Drug level in Fragaria x ananassa (strawberry) leaf at 50 mg/l leaves after 20 days; assay type: ADME; details: read-out: Drug uptake

CC[C@H]1CCC[C@H](O[C@H]2CC[C@H](N(C)C)[C@@H](C)O2)[C@@H](C)C(=O)C2=C[C@@H]3[C@@H](C=C(C)[C@@H]4C[C@@H](O[C@@H]5O[C@@H](C)[C@H](OC)[C@@H](OC)[C@H]5OC)C[C@@H]34)[C@@H]2CC(=O)O1.CC[C@H]1CCC[C@H](O[C@H]2CC[C@H](N(C)C)[C@@H](C)O2)[C@@H](C)C(=O)C2=C[C@@H]3[C@@H](C=C[C@@H]4C[C@@H](O[C@@H]5O[C@@H](C)[C@H](OC)[C@@H](OC)[C@H]5OC)C[C@@H]34)[C@@H]2CC(=O)O1
Drug uptake (Aphidius colemani): 3.63 ng | mortality at 48 h [1]: 17.2% | mortality at 24 h [2]: 3.3% | mortality at 48 h [3]: 93.6% | mortality at 48 h [4]: 55.9% | mortality at 24 h [5]: 100% | mortality at 24 h [6]: 3.3% | Drug uptake (Leaf [7]): 0.93% | Drug uptake (Leaf [8]): 0.022% | mortality at 48 h [9]: 8.9% | concentration at 720 h [10]: 11400 ng/g | Drug uptake (Leaf [11]): 0.022% | mortality at 24 h [12]: 4% | mortality at 24 h [13]: 0% | mortality at 48 h [14]: 100% | mortality at 24 h [15]: 74.4% | mortality at 48 h [16]: 21.4% | Drug uptake (Leaf [17]): 0.219% | Drug uptake (Leaf [18]): 0.044% | mortality at 48 h [19]: 100% | Drug uptake (Leaf [20]): 2.37% | mortality at 48 h [21]: 98.2% | mortality at 24 h [22]: 100% | Drug uptake (Leaf [23]): 0.004% | concentration at 960 h [24]: 9200 ng/g | Drug uptake (Leaf [25]): 0.025% | mortality at 24 h [26]: 91.3% | mortality at 48 h [27]: 95.1% | Drug uptake (Leaf [28]): 0.023% | mortality at 24 h [29]: 95.8% | Drug uptake (Leaf [30]): 0.003% | mortality at 24 h [31]: 93.3% | mortality at 24 h [32]: 100% | mortality at 24 h [33]: 0% | mortality at 48 h [34]: 100% | Drug uptake (Leaf [35]): 1.145% | mortality at 48 h [36]: 10% | mortality at 48 h [37]: 0% | mortality at 48 h [38]: 0% | mortality at 48 h [39]: 97.8% | mortality at 24 h [40]: 62% | mortality at 48 h [41]: 0% | mortality at 24 h [42]: 27.7% | mortality at 48 h [43]: 0% | Drug uptake (Leaf [44]): 2.108% | mortality at 24 h [45]: 0% | concentration at 120 h [46]: 38800 ng/g | mortality at 24 h [47]: 3.3% | mortality at 24 h [48]: 90% | mortality at 48 h [49]: 0% | mortality at 48 h [50]: 86.7% | Drug uptake (Leaf [51]): 0.177% | concentration at 240 h [52]: 28800 ng/g | mortality at 24 h [53]: 90% | mortality at 24 h [54]: 96.9% | mortality at 24 h [55]: 48.3% | mortality at 24 h [56]: 4% | mortality at 24 h [57]: 4.3% | concentration at 480 h [58]: 23000 ng/g
